Experimental data as given in ChEMBL document CHEMBL1201862, “PubChem BioAssay data set” (2004).
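Method: 48-hour compound exposure of cells in 96-well plates, five concentrations, linear interpolation of endpoints. The concentration for 50% growth inhibition is given as GI50.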 Active and inactive are the calls of the source. Cut-off read from the data, not from the text of the source: active = GI50 up to about 1.1 µM and inactive = higher.

Experiments:
Experiment in all cases: DTP human tumour cell line panel, 48 h
[1] = test system: 786-0
[2] = test system: A549
[3] = test system: ACHN
[4] = test system: BT-549
[5] = test system: CAKI-1
[6] = test system: CCRF-CEM
[7] = test system: COLO 205
[8] = test system: DU-145
[9] = test system: EKVX
[10] = test system: HCC 2998
[11] = test system: HCT-116
[12] = test system: HCT-15
[13] = test system: HL-60
[14] = test system: HOP-62
[15] = test system: HOP-92
[16] = test system: HT-29
[17] = test system: IGROV-1
[18] = test system: K562
[19] = test system: KM12
[20] = test system: LOX IMVI
[21] = test system: M14
[22] = test system: MCF7
[23] = test system: MDA-MB-435
[24] = test system: MDA-N
[25] = test system: MOLT-4
[26] = test system: Malme-3M
[27] = test system: NCI-H226
[28] = test system: NCI-H23
[29] = test system: NCI-H460
[30] = test system: NCI-H522
[31] = test system: NCI/ADR-RES
[32] = test system: OVCAR-3
[33] = test system: OVCAR-4
[34] = test system: OVCAR-5
[35] = test system: OVCAR-8
[36] = test system: PC-3
[37] = test system: RPMI-8226
[38] = test system: RXF 393
[39] = test system: SF-268
[40] = test system: SF-295
[41] = test system: SF-539
[42] = test system: SK-MEL-28
[43] = test system: SK-MEL-2
[44] = test system: SK-MEL-5
[45] = test system: SK-OV-3
[46] = test system: SN12C
[47] = test system: SNB-19
[48] = test system: SNB-75
[49] = test system: SR
[50] = test system: SW-620
[51] = test system: T47D
[52] = test system: TK-10
[53] = test system: U-251
[54] = test system: UACC-257
[55] = test system: UACC-62
[56] = test system: UO-31
[57] = test system: A498
[58] = test system: MDA-MB-231
[59] = test system: Hs-578T

O=S(=O)(Nc1nccs1)c1ccc(Nc2nc(-c3cccs3)nc3ccc(I)cc23)cc1
GI50 [1]: 15.5 µM (inactive)
GI50 [2]: 26.7 µM (inactive)
GI50 [3]: 29.6 µM (inactive)
GI50 [4]: 11.9 µM (inactive)
GI50 [5]: 9.91 µM (inactive)
GI50 [6]: 3.48 µM (inactive)
GI50 [7]: 6.34 µM (inactive)
GI50 [8]: 9.48 µM (inactive)
GI50 [9]: 2.22 µM (inactive)
GI50 [10]: 13.2 µM (inactive)
GI50 [11]: 8.97 µM (inactive)
GI50 [12]: 32.1 µM
GI50 [13]: 42.3 µM (inactive)
GI50 [14]: 16.3 µM (inactive)
GI50 [15]: 9.35 µM (inactive)
GI50 [16]: 18.7 µM (inactive)
GI50 [17]: 17.4 µM (inactive)
GI50 [18]: 14.8 µM (inactive)
GI50 [19]: 7.36 µM (inactive)
GI50 [20]: 14.6 µM (inactive)
GI50 [21]: 22.4 µM (inactive)
GI50 [22]: 8.28 µM (inactive)
GI50 [23]: 11.8 µM (inactive)
GI50 [24]: 32.5 µM (inactive)
GI50 [25]: 14.2 µM (inactive)
GI50 [26]: 14.3 µM (inactive)
GI50 [27]: 35.1 µM (inactive)
GI50 [28]: 37.4 µM (inactive)
GI50 [29]: 9.73 µM (inactive)
GI50 [30]: 19.4 µM (inactive)
GI50 [31]: > 75.5 µM (inactive)
GI50 [32]: 14.2 µM (inactive)
GI50 [33]: 26.9 µM (inactive)
GI50 [34]: 40.2 µM (inactive)
GI50 [35]: 22.2 µM (inactive)
GI50 [36]: 5.12 µM (inactive)
GI50 [37]: 4.74 µM (inactive)
GI50 [38]: 36.5 µM (inactive)
GI50 [39]: 12.6 µM (inactive)
GI50 [40]: 11.8 µM (inactive)
GI50 [41]: 17.8 µM (inactive)
GI50 [42]: 21.4 µM (inactive)
GI50 [43]: 38.5 µM (inactive)
GI50 [44]: 8.18 µM (inactive)
GI50 [45]: 24.7 µM (inactive)
GI50 [46]: 25.4 µM (inactive)
GI50 [47]: 14.5 µM (inactive)
GI50 [48]: 36.4 µM (inactive)
GI50 [49]: 22.9 µM (inactive)
GI50 [50]: 13 µM (inactive)
GI50 [51]: 8.43 µM (inactive)
GI50 [52]: 9.51 µM (inactive)
GI50 [53]: 11.5 µM (inactive)
GI50 [54]: 4.49 µM (inactive)
GI50 [55]: 19.2 µM (inactive)
GI50 [56]: 17 µM (inactive)

CCCCc1ccc(N2C(=O)c3cccnc3S2(=O)=O)cc1
GI50 [1]: > 100 µM (inactive)
GI50 [57]: > 100 µM (inactive)
GI50 [2]: > 100 µM (inactive)
GI50 [3]: > 100 µM (inactive)
GI50 [4]: > 100 µM (inactive)
GI50 [5]: > 100 µM (inactive)
GI50 [6]: > 100 µM (inactive)
GI50 [7]: > 100 µM (inactive)
GI50 [8]: > 100 µM (inactive)
GI50 [9]: > 100 µM (inactive)
GI50 [10]: > 100 µM (inactive)
GI50 [11]: > 100 µM (inactive)
GI50 [12]: > 100 µM
GI50 [13]: > 100 µM (inactive)
GI50 [14]: > 100 µM (inactive)
GI50 [15]: > 100 µM (inactive)
GI50 [16]: > 100 µM (inactive)
GI50 [17]: > 100 µM (inactive)
GI50 [18]: > 100 µM (inactive)
GI50 [19]: > 100 µM (inactive)
GI50 [21]: > 100 µM (inactive)
GI50 [22]: > 100 µM (inactive)
GI50 [58]: > 100 µM (inactive)
GI50 [23]: > 100 µM (inactive)
GI50 [24]: > 100 µM (inactive)
GI50 [25]: > 100 µM (inactive)
GI50 [26]: > 100 µM (inactive)
GI50 [27]: > 100 µM (inactive)
GI50 [28]: > 100 µM (inactive)
GI50 [29]: > 100 µM (inactive)
GI50 [30]: > 100 µM (inactive)
GI50 [31]: > 100 µM (inactive)
GI50 [32]: > 100 µM (inactive)
GI50 [33]: > 100 µM (inactive)
GI50 [34]: > 100 µM (inactive)
GI50 [35]: > 100 µM (inactive)
GI50 [36]: > 100 µM (inactive)
GI50 [37]: > 100 µM (inactive)
GI50 [38]: > 100 µM (inactive)
GI50 [39]: > 100 µM (inactive)
GI50 [40]: > 100 µM (inactive)
GI50 [41]: > 100 µM (inactive)
GI50 [42]: > 100 µM (inactive)
GI50 [43]: > 100 µM (inactive)
GI50 [45]: > 100 µM (inactive)
GI50 [46]: > 100 µM (inactive)
GI50 [47]: > 100 µM (inactive)
GI50 [48]: > 100 µM (inactive)
GI50 [49]: > 100 µM (inactive)
GI50 [50]: > 100 µM (inactive)
GI50 [51]: > 100 µM (inactive)
GI50 [53]: > 100 µM (inactive)
GI50 [54]: > 100 µM (inactive)
GI50 [55]: > 100 µM (inactive)
GI50 [56]: > 100 µM (inactive)

CCOc1ccc(/C=C2/C(=O)N/C(=N\C(C)=O)N2C)cc1
GI50 [1]: > 100 µM (inactive)
GI50 [57]: > 100 µM (inactive)
GI50 [2]: > 100 µM (inactive)
GI50 [3]: > 100 µM (inactive)
GI50 [4]: > 100 µM (inactive)
GI50 [5]: > 100 µM (inactive)
GI50 [7]: > 100 µM (inactive)
GI50 [8]: > 100 µM (inactive)
GI50 [9]: 54.2 µM (inactive)
GI50 [10]: > 100 µM (inactive)
GI50 [11]: > 100 µM (inactive)
GI50 [12]: 64.7 µM
GI50 [13]: 17.9 µM (inactive)
GI50 [14]: 96.6 µM (inactive)
GI50 [15]: > 100 µM (inactive)
GI50 [16]: > 100 µM (inactive)
GI50 [17]: > 100 µM (inactive)
GI50 [19]: > 100 µM (inactive)
GI50 [20]: > 100 µM (inactive)
GI50 [21]: > 100 µM (inactive)
GI50 [22]: 62.8 µM (inactive)
GI50 [58]: > 100 µM (inactive)
GI50 [23]: > 100 µM (inactive)
GI50 [24]: > 100 µM (inactive)
GI50 [25]: 39.6 µM (inactive)
GI50 [27]: > 100 µM (inactive)
GI50 [28]: > 100 µM (inactive)
GI50 [29]: 67.5 µM (inactive)
GI50 [31]: > 100 µM (inactive)
GI50 [32]: > 100 µM (inactive)
GI50 [33]: > 100 µM (inactive)
GI50 [34]: > 100 µM (inactive)
GI50 [35]: > 100 µM (inactive)
GI50 [38]: > 100 µM (inactive)
GI50 [39]: > 100 µM (inactive)
GI50 [40]: > 100 µM (inactive)
GI50 [41]: > 100 µM (inactive)
GI50 [42]: > 100 µM (inactive)
GI50 [43]: > 100 µM (inactive)
GI50 [44]: > 100 µM (inactive)
GI50 [45]: > 100 µM (inactive)
GI50 [46]: > 100 µM (inactive)
GI50 [47]: > 100 µM (inactive)
GI50 [48]: > 100 µM (inactive)
GI50 [50]: > 100 µM (inactive)
GI50 [51]: > 100 µM (inactive)
GI50 [52]: > 100 µM (inactive)
GI50 [53]: > 100 µM (inactive)
GI50 [54]: > 100 µM (inactive)
GI50 [55]: > 100 µM (inactive)
GI50 [56]: > 100 µM (inactive)

CC(=O)OC1OC(c2ccoc2)C[C@@]12C1CCC3O[C@]3(C)[C@]1(C)[C@H](OC(C)=O)[C@H](OC(C)=O)[C@H]2C (some centres undefined)
GI50 [1]: > 37.5 µM (inactive)
GI50 [57]: > 37.5 µM (inactive)
GI50 [2]: > 37.5 µM (inactive)
GI50 [3]: > 37.5 µM (inactive)
GI50 [4]: > 37.5 µM (inactive)
GI50 [5]: > 37.5 µM (inactive)
GI50 [6]: 11.2 µM (inactive)
GI50 [7]: > 37.5 µM (inactive)
GI50 [9]: > 37.5 µM (inactive)
GI50 [10]: > 37.5 µM (inactive)
GI50 [11]: > 37.5 µM (inactive)
GI50 [12]: > 37.5 µM
GI50 [13]: 6.62 µM (inactive)
GI50 [14]: > 37.5 µM (inactive)
GI50 [15]: > 37.5 µM (inactive)
GI50 [16]: > 37.5 µM (inactive)
GI50 [59]: > 37.5 µM (inactive)
GI50 [17]: > 37.5 µM (inactive)
GI50 [18]: > 37.5 µM (inactive)
GI50 [19]: > 37.5 µM (inactive)
GI50 [20]: 28.1 µM (inactive)
GI50 [21]: > 37.5 µM (inactive)
GI50 [22]: > 37.5 µM (inactive)
GI50 [58]: > 37.5 µM (inactive)
GI50 [24]: > 37.5 µM (inactive)
GI50 [25]: 18.5 µM (inactive)
GI50 [26]: > 37.5 µM (inactive)
GI50 [27]: > 37.5 µM (inactive)
GI50 [28]: 30.3 µM (inactive)
GI50 [29]: > 37.5 µM (inactive)
GI50 [31]: > 37.5 µM (inactive)
GI50 [32]: > 37.5 µM (inactive)
GI50 [33]: > 37.5 µM (inactive)
GI50 [34]: > 37.5 µM (inactive)
GI50 [35]: > 37.5 µM (inactive)
GI50 [36]: > 37.5 µM (inactive)
GI50 [38]: > 37.5 µM (inactive)
GI50 [40]: > 37.5 µM (inactive)
GI50 [41]: > 37.5 µM (inactive)
GI50 [42]: > 37.5 µM (inactive)
GI50 [43]: > 37.5 µM (inactive)
GI50 [44]: > 37.5 µM (inactive)
GI50 [45]: > 37.5 µM (inactive)
GI50 [46]: > 37.5 µM (inactive)
GI50 [47]: > 37.5 µM (inactive)
GI50 [49]: 18.1 µM (inactive)
GI50 [50]: > 37.5 µM (inactive)
GI50 [52]: > 37.5 µM (inactive)
GI50 [53]: > 37.5 µM (inactive)
GI50 [54]: > 37.5 µM (inactive)
GI50 [55]: > 37.5 µM (inactive)
GI50 [56]: > 37.5 µM (inactive)
